Test results published in patent US10695347B2, “Pyrimidine derivative and use thereof” (Hubei Bio-Pharmaceutical Industrial Technological Institute …, priority 2015, dated 2020).
Where two headings read alike, the source gives them in different places.

Key:
[1] = biological target: ALK (Homo sapiens (Human), UniProt Q9UM73); test: Inhibition of ALK kinase activity (Caliper mobility shift); assay type: biochemical
Method: (§1) Inhibition of Compound I Against ALK Kinase Activity
(§2) • I. Preparation of 1× kinase buffer and stop buffer
(§3) 1) 1× Kinase Buffer • 50 mM HEPES. pH 7.5 • 0.0015% Brij-35 • 10 mM MgCl2 • 2 mM DTT • 2) stop buffer • 100 mM HEPES, pH 7.5 • 0.015% Brij-35 • 0.2% Coating Reagent #3 • 50 mM EDTA
(§4) 2. Prepare a Compound Solution to be Tested • Step 2.1 Dilute the compound to 50× of the final desired highest inhibitor concentration in reaction by 100% DMSO. Transfer 100 μl of this compound dilution to a well in a 96-well plate. For example, if desired highest inhibitor concentration is 1 μM, then prepare 50 μM of compound DMSO solution in this step.
(§5) Step 2.2 Further dilute said compound dilution by 3-fold in series, thus obtain 10 concentrations.
(§6) Step 2.3 Add 100 μl of 100% DMSO to two empty wells for no compound control and no enzyme control in the same 96-well plate. Mark the plate as source plate.
(§7) Step 2.4 Prepare an intermediate plate
(§8) Transfer 10 μl of each compound from the source plate to a new 96-well plate as the intermediate plate.
(§9) Add 90 μl of 1× kinase buffer to each well of the intermediate plate. Mix the compounds in the intermediate plate for 10 min on a shaker.
(§10) Transfer 5 μl of each well from the 96-well intermediate plate to a 384-well plate in duplicate. For example, A1 of the 96-well plate is transferred to A1 and A2 of the 384-well plate. A2 of the 96-well plate is transferred to A3 and A4 of the 384-well plate, and so on.
(§11) 4.1 Prepare a 2.5× kinase solution
(§12) Add kinase in 1× kinase base buffer, thus obtain the 2.5× kinase solution.
(§13) 4.2 Prepare a 2.5× peptide solution
(§14) 4.3 In each well of the assay plate obtained in step 3, there was 5 μL of the compound in 10% DMSO.
(§15) 4.4 Transfer the 2.5× enzyme solution to the assay plate.
(§16) 4.5 Incubate at room temperature for 10 min.
(§17) 4.6 Transfer the 2.5× peptide solution to the assay plate.
(§18) 4.7 Kinase reaction and stop
(§19) Incubate at 28° C. for 20 min.
(§20) Add 25 μl of stop buffer to stop reaction.
(§21) Conversion rate of the kinase was read via the Caliper.
(§22) 6.1 Copy conversion data from Caliper program.
(§23) 6.2 Convert conversion values to inhibition values with the following formula: Percent inhibition=(max−conversion)/(max−min)*100
(§24) where “max” stands for DMSO control; and “min” stands for low control.
(§25) 6.3 Fit the data in XLfit excel add-in version 4.3.1 and obtain IC50 values according to the following formula: Y=Bottom+(Top−Bottom)/[…].

[2] = biological target: ALK L1196M (Homo sapiens (Human), UniProt Q9UM73, L1196M); test: Inhibition of ALK L1196M kinase activity (Caliper mobility shift); assay type: biochemical
ALK L1196M, sequence (Q9UM73 19-1620 L1196M): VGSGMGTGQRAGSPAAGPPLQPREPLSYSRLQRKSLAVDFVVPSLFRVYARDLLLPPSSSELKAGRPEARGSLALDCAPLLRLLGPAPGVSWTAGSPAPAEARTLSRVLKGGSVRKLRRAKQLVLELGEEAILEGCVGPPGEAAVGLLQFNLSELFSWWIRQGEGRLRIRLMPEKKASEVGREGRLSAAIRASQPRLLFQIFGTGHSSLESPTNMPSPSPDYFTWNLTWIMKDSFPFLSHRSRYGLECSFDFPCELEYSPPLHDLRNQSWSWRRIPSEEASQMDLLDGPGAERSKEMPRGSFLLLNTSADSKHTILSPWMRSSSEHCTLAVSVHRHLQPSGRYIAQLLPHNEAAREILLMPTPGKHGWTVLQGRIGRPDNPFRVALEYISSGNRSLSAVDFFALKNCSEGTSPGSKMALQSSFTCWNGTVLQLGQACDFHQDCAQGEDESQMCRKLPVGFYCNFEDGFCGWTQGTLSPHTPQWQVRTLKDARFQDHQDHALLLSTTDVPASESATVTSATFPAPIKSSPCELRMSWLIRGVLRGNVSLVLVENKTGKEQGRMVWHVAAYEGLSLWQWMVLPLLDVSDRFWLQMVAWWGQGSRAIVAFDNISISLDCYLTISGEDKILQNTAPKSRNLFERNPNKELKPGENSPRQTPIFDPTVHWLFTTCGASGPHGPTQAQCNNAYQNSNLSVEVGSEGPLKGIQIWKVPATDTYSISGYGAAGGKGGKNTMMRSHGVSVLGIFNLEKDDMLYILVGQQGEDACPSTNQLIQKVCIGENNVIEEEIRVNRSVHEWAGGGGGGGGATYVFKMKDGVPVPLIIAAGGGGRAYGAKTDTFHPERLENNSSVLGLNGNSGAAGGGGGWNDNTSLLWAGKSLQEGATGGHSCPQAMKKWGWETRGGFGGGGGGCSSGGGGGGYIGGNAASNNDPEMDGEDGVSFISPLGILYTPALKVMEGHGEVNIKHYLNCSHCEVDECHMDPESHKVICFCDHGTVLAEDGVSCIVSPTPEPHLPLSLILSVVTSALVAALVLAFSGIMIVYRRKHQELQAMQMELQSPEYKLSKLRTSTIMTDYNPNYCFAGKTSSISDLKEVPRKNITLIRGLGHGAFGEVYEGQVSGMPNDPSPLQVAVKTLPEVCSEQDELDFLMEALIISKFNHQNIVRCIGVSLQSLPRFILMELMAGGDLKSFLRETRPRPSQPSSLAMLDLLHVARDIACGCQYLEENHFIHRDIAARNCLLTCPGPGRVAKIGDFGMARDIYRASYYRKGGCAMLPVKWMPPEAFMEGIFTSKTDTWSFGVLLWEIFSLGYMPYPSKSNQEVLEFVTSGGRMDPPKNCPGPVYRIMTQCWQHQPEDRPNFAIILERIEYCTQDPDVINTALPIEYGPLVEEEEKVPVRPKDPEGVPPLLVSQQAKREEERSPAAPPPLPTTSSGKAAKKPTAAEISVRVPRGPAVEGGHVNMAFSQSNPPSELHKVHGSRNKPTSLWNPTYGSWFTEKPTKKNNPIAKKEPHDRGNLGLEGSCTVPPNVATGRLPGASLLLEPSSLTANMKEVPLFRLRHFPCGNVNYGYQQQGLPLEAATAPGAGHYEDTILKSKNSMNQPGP
Method: as §1, §2, §3, §4, §5, §6, §7, §8, §9, §10, §11, §12, §13, §14, §15, §16, §17, §18, §19, §20, §21, §22, §23, §24, §25

[3] = test system: Karpas299 cells; test: Suppression of Karpas299 cell proliferation (CellTiter-Glo); assay type: cell-based; details: 3 days incubation, read-out: Inhibition activity on Karpas299 cells IC50
Method: (§26) As the amount of ATP can indicate the number of living cells directly, the living cells in culture are able to be quantified by determining the ATP level. In our experiment, we use a living-cell testing kit to quantify the living cells, which utilizes UltraGlow luciferase to generate a stable glow signal in the presence of ATP which is produced by metabolism of living cells, such as respiration. Specifically, a reagent CellTiter-Glo™ was added into cell culture media, and then the luminescent intensity was determined to measure proliferation of cells, as the luminescent intensity is in direct proportion to the ATP level which correlates positively to the number of living cells. The test plate was tested with the Envision (PE).
Cell media: RPMI-1640 medium, fetal calf serum (FCS), antibiotics (Penicillin-Streptomycin)
Assay reagent: Cell Viability Assay Kit CellTiter-Glo
(§27) Others: a 96-well plate, a 384-well plate, DMSO
(§28) Step 3.1 Culturing test cells
Karpas 299 cells were plated into a black 384-well plate, with 2500 cells in 45 μl cell suspension per well. The plate was placed in a carbon dioxide incubator overnight.
(§29) Step 3.2 Preparation of the compounds to be tested
Each compound to be tested was dissolved in DMSO at 10 mM as the stock solution, which was left in a nitrogen-gas tank for storage.
After dilution of 10 μL stock solution (10 mM) into 2.5 mM as a starting working solution, 10 concentrations of the working solutions from 5 μM to 0.25 nM were obtained in duplicate by further dilution in 3-fold series with ECHO.
Step 3.3 Mixing the compound with the test cells
To each well of a new 96-well plate were added 49 μl medium and 1 μl of the compounds to be tested at individual working concentrations (10 concentrations in total). After oscillation,
5 μl of mixture in each well of the 96-well plate was transferred into corresponding wells in the 384-well plate in the step 3.1. The 384-well plate was incubated in the carbon dioxide incubator for 3 days.
To each well of the 384-well plate was added […] reagent Promega CellTiter-Glo. and incubated at room temperature for 10 minutes to stabilize the luminescence signal. The results were read with the PerkinElmer Envision Multi-mode Plate Reader.

[4] = test system: Ba/F3 EML4-ALK cells; test: Suppression of Ba/F3 EML4-ALK cell proliferation (CellTiter-Glo); assay type: cell-based; details: 3 days incubation
Text: Cell media: RPMI-1640 medium, fetal calf serum (FCS), antibiotics (Penicillin-Streptomycin), IL-3, puromycin
Cell line: Ba/F3 EML4-ALK
Assay reagent: Cell Viability Assay Kit Celliter-Glo
as §27
as §26, with “in medium” for “in culture”, “a cell viability assay” for “a living-cell testing”, “was assayed by” for “was tested with”
as §28
Ba/F3 EML4-ALK cells were planted into a 384-well plate, with almost 300 cells per well. The plate was placed in a carbon dioxide incubator overnight.
as §29
10 concentrations of the working solutions were obtained in duplicate by dilution in 3-fold series with BRAVO.
Step 3.3 Mixing the compound to be tested with the test cells
The compounds to be tested at individual working concentrations were transferred into corresponding wells in the 384-well plate in the step 3.1, with 5 μM as the initial working concentration, and then the 384-well plate was incubated in the carbon dioxide incubator for 3 days.
To each well of the 384-well plate was added the reagent Promega CellTiter-Glo, and incubated at room temperature for 10 minutes to stabilize the luminescence signal. The results were read by the PerkinElmer Envision Multi-mode Plate Reader.

ALK, sequence (Q9UM73 19-1620): as the sequence (Q9UM73 19-1620 L1196M) above, with M1178L counted along it

IC50 [3] | IC50 [4] | Molecule | IC50 [1] | IC50 [2] | IC50 ([3]; Homo sapiens, KARPAS-299, 72 h) | IC50 ([4]; Ba/F3 EML4-ALK, 72 h)
< 50 nM | < 20 nM | 5-chloro-N^2-(2-isopropoxy-5-methyl-4-(1,2,3,6-tetrahydropiperidin-4-yl) phenyl)-N^4-(2-isopropylsulfonyl) pyridin-3-yl) pyrimidine-2,4-diamine [Compound I-90] | 1 to 10 nM | 1 to 10 nM | – | –
– | – | COc1cc(N2CCOCC2)ccc1Nc1ncc(Cl)c(Nc2ccsc2S(=O)(=O)C(C)C)n1 [Compound I-1] | – | – | < 50 nM | < 20 nM
– | – | COc1cc(N2CCN(C)CC2)ccc1Nc1ncc(Cl)c(Nc2ccsc2S(=O)(=O)C(C)C)n1 [Compound I-2] | – | – | < 50 nM | < 20 nM
– | – | COc1cc(N2CCC(N(C)C)CC2)ccc1Nc1ncc(Cl)c(Nc2ccsc2S(=O)(=O)C(C)C)n1 [Compound I-3] | – | – | < 50 nM | < 20 nM
– | – | COc1cc(N2CCN(C)CC2)ccc1Nc1ncc(Cl)c(Nc2cccnc2S(=O)(=O)C(C)C)n1 [Compound I-5] | 1 to 10 nM | 1 to 10 nM | < 50 nM | < 20 nM
– | – | COc1cc(N2CCC(N(C)C)CC2)ccc1Nc1ncc(Cl)c(Nc2cccnc2S(=O)(=O)C(C)C)n1 [Compound I-6] | 1 to 10 nM | 1 to 10 nM | < 50 nM | < 20 nM
– | – | COc1cc(N2CCC(N3CCOCC3)CC2)ccc1Nc1ncc(Cl)c(Nc2cccnc2S(=O)(=O)C(C)C)n1 [Compound I-7] | 1 to 10 nM | 1 to 10 nM | < 50 nM | < 20 nM
– | – | COc1cc(N2CCC(N3CCOCC3)CC2)ccc1Nc1ncc(Cl)c(Nc2ccsc2S(=O)(=O)C(C)C)n1 [Compound I-8] | – | – | < 50 nM | < 20 nM
– | – | COc1cc(N2CCC(O)CC2)ccc1Nc1ncc(Cl)c(Nc2cccnc2S(=O)(=O)C(C)C)n1 [Compound I-9] | 1 to 10 nM | 1 to 10 nM | < 50 nM | 20 to 100 nM
– | – | COc1cc(N2CCC(N3CCN(C)CC3)CC2)ccc1Nc1ncc(Cl)c(Nc2cccnc2S(=O)(=O)C(C)C)n1 [Compound I-10] | 1 to 10 nM | 1 to 10 nM | < 50 nM | < 20 nM
– | – | COc1cc(N2CCC(N3CCN(C)CC3)CC2)ccc1Nc1ncc(Cl)c(Nc2ccsc2S(=O)(=O)C(C)C)n1 [Compound I-11] | 1 to 10 nM | 1 to 10 nM | < 50 nM | < 20 nM
– | – | COc1cc(N2CCC(N3CC(C)OC(C)C3)CC2)ccc1Nc1ncc(Cl)c(Nc2cccnc2S(=O)(=O)C(C)C)n1 (centres unmarked) [Compound I-12] | 1 to 10 nM | 1 to 10 nM | 50 to 100 nM | < 20 nM
– | – | COc1cc(N2CCN(C)CC2)ccc1Nc1ncc(Cl)c(Nc2ccccc2S(=O)(=O)C(C)C)n1 [Compound I-13] | – | – | < 50 nM | < 20 nM
– | – | COc1cc(N2CCC(N(C)C)CC2)ccc1Nc1ncc(Cl)c(Nc2ccccc2S(=O)(=O)C(C)C)n1 [Compound I-14] | – | – | < 50 nM | < 20 nM
– | – | COc1cc(N2CCC(N3CCC(N(C)C)CC3)CC2)ccc1Nc1ncc(Cl)c(Nc2ccccc2S(=O)(=O)C(C)C)n1 [Compound I-15] | – | – | 50 to 100 nM | < 20 nM
– | – | COc1cc(N2CCC(O)CC2)ccc1Nc1ncc(Cl)c(Nc2ccsc2S(=O)(=O)C(C)C)n1 [Compound I-16] | – | – | < 50 nM | < 20 nM
– | – | COc1cc(N2CCC(N3CC(C)OC(C)C3)CC2)ccc1Nc1ncc(Cl)c(Nc2ccccc2S(=O)(=O)C(C)C)n1 (centres unmarked) [Compound I-17] | 1 to 10 nM | 1 to 10 nM | < 50 nM | < 20 nM
– | – | COc1cc(N2CCC(N3CCC(N(C)C)CC3)CC2)ccc1Nc1ncc(Cl)c(Nc2ccsc2S(=O)(=O)C(C)C)n1 [Compound I-18] | 1 to 10 nM | 1 to 10 nM | < 50 nM | < 20 nM
– | – | COc1cc(N2CCN(C(C)C)CC2)ccc1Nc1ncc(Cl)c(Nc2cccnc2S(=O)(=O)C(C)C)n1 [Compound I-23] | 1 to 10 nM | 1 to 10 nM | < 50 nM | < 20 nM
– | – | COc1cc(C2=CCN(C(C)C)CC2)c(C)cc1Nc1ncc(Cl)c(Nc2cccnc2S(=O)(=O)C(C)C)n1 [Compound I-80, 5-chloro-N^2-(4-(1-isopropyl-1,2,3,6-tetrahydropyridin-4-yl)-2-methoxy-5-methylphenyl)-N^4-(2-(isopropylsulfonyl)pyridin-3-yl) pyrimidine-2,4-diamine] | 1 to 10 nM | 1 to 10 nM | < 50 nM | 20 to 100 nM
– | – | COc1cc(C2=CCNCC2)c(C)cc1Nc1ncc(Cl)c(Nc2cccnc2S(=O)(=O)C(C)C)n1 [Compound I-89] | 1 to 10 nM | – | 50 to 100 nM | < 20 nM
– | – | CC(C)S(=O)(=O)c1ccccc1Nc1nc(Nc2ccc(N3CCC(N(C)C)CC3)cc2OC(F)F)ncc1Cl [Compound I-95] | – | – | < 50 nM | 20 to 100 nM
– | – | COc1cc(CN2CCC(N(C)C)CC2)ccc1Nc1ncc(OC(F)F)c(Nc2ccccc2S(=O)(=O)C(C)C)n1 [Compound I-103] | 1 to 10 nM | – | 50 to 100 nM | < 20 nM
– | – | COc1cc(CN2CCC(N(C)C)CC2)ccc1Nc1ncc(Cl)c(Nc2cccnc2S(=O)(=O)C(C)C)n1 [Compound I-107] | – | 1 to 10 nM | 50 to 100 nM | 20 to 100 nM
– | – | CC(C)S(=O)(=O)c1ccccc1Nc1nc(Nc2ccc(N3CCC(N(C)C)CC3)cc2OC(F)F)ncc1OC(F)F [Compound I-114] | – | – | < 50 nM | < 20 nM
